Measurements published in ChEMBL document CHEMBL5724914, “Linking interpersonal differences in gut microbiota composition and drug biotransformation activity” (2024).

Experiment: (§1) The drug is tested on Z-029 corresponding to rat gut metagenome with ENA study accession number: PRJEB37062 and ENA sample accession number: ERS12561828 for biotransformation under anaerobic condition. The drug concentrations were measured over 9 timepoints collected between 0 and 24 hours of incubation by liquid-chromatography-coupled mass spectrometry (LC–MS)
Conditions: 2 µM
Note: call rule not given here.

| Bacterial Biotransformation | Structure (SMILES) |
| --- | --- |
| Compound NOT metabolized | CCOc1ccc(NC(C)=O)cc1 [PHENACETIN] |
| Compound metabolized | CC(C(=O)O)c1ccc2c(c1)Cc1cccnc1O2 (stereo not given) [PRANOPROFEN] |

Experiment: as §1, with “on Z-022” for “on Z-029”, “to mouse” for “to rat”, “number: ERS12561821” for “number: ERS12561828”
Conditions: 2 µM

| Bacterial Biotransformation | Structure (SMILES) |
| --- | --- |
| Compound NOT metabolized | CCOc1ccc(NC(C)=O)cc1 [PHENACETIN] |
| Compound metabolized | CC(C(=O)O)c1ccc2c(c1)Cc1cccnc1O2 (stereo not given) [PRANOPROFEN] |

Experiment: as §1, with “on Z-017” for “on Z-029”, “to mouse” for “to rat”, “number: ERS12561816” for “number: ERS12561828”
Conditions: 2 µM

| Bacterial Biotransformation | Structure (SMILES) |
| --- | --- |
| Compound NOT metabolized | CCOc1ccc(NC(C)=O)cc1 [PHENACETIN] |
| Compound NOT metabolized | CC(C(=O)O)c1ccc2c(c1)Cc1cccnc1O2 (stereo not given) [PRANOPROFEN] |

Experiment: as §1, with “on Z-006” for “on Z-029”, “to mouse” for “to rat”, “number: ERS12561806” for “number: ERS12561828”
Conditions: 2 µM

| Bacterial Biotransformation | Structure (SMILES) |
| --- | --- |
| Compound NOT metabolized | CCOc1ccc(NC(C)=O)cc1 [PHENACETIN] |
| Compound metabolized | CC(C(=O)O)c1ccc2c(c1)Cc1cccnc1O2 (stereo not given) [PRANOPROFEN] |

Experiment: as §1, with “Z-005” for “Z-029”, “to” for “to rat gut”, “ERS12561805” for “ERS12561828”
Conditions: 2 µM

| Bacterial Biotransformation | Structure (SMILES) |
| --- | --- |
| Compound NOT metabolized | CCOc1ccc(NC(C)=O)cc1 [PHENACETIN] |
| Compound metabolized | CC(C(=O)O)c1ccc2c(c1)Cc1cccnc1O2 (stereo not given) [PRANOPROFEN] |

Experiment: as §1, with “Z-004” for “Z-029”, “to” for “to rat gut”, “ERS12561804” for “ERS12561828”
Conditions: 2 µM

| Bacterial Biotransformation | Structure (SMILES) |
| --- | --- |
| Compound NOT metabolized | CCOc1ccc(NC(C)=O)cc1 [PHENACETIN] |
| Compound metabolized | CC(C(=O)O)c1ccc2c(c1)Cc1cccnc1O2 (stereo not given) [PRANOPROFEN] |

Experiment: as §1, with “on WLS-350” for “on Z-029”, “to human” for “to rat”, “number: ERS12561789” for “number: ERS12561828”
Conditions: 2 µM

| Bacterial Biotransformation | Structure (SMILES) |
| --- | --- |
| Compound NOT metabolized | CCOc1ccc(NC(C)=O)cc1 [PHENACETIN] |
| Compound metabolized | CC(C(=O)O)c1ccc2c(c1)Cc1cccnc1O2 (stereo not given) [PRANOPROFEN] |

Experiment: as §1, with “on WLS-220” for “on Z-029”, “to human” for “to rat”, “number: ERS12561769” for “number: ERS12561828”
Conditions: 2 µM

| Bacterial Biotransformation | Structure (SMILES) |
| --- | --- |
| Compound NOT metabolized | CCOc1ccc(NC(C)=O)cc1 [PHENACETIN] |
| Compound metabolized | CC(C(=O)O)c1ccc2c(c1)Cc1cccnc1O2 (stereo not given) [PRANOPROFEN] |

Experiment: as §1, with “on WLS-069” for “on Z-029”, “to human” for “to rat”, “number: ERS12561748” for “number: ERS12561828”
Conditions: 2 µM

| Bacterial Biotransformation | Structure (SMILES) |
| --- | --- |
| Compound NOT metabolized | CCOc1ccc(NC(C)=O)cc1 [PHENACETIN] |
| Compound metabolized | CC(C(=O)O)c1ccc2c(c1)Cc1cccnc1O2 (stereo not given) [PRANOPROFEN] |

Experiment: as §1, with “on WLS-052” for “on Z-029”, “to human” for “to rat”, “number: ERS12561747” for “number: ERS12561828”
Conditions: 2 µM

| Bacterial Biotransformation | Structure (SMILES) |
| --- | --- |
| Compound NOT metabolized | CCOc1ccc(NC(C)=O)cc1 [PHENACETIN] |
| Compound metabolized | CC(C(=O)O)c1ccc2c(c1)Cc1cccnc1O2 (stereo not given) [PRANOPROFEN] |

Conditions: human gut metagenome, 24 h, 2 µM

| Bacterial Biotransformation | Structure (SMILES) |
| --- | --- |
| Compound NOT metabolized | CCOc1ccc(NC(C)=O)cc1 [PHENACETIN] |
| Compound metabolized | CC(C(=O)O)c1ccc2c(c1)Cc1cccnc1O2 (stereo not given) [PRANOPROFEN] |

Conditions: human gut metagenome, 24 h, 2 µM
Remark: another data set of the same source

| Bacterial Biotransformation | Structure (SMILES) |
| --- | --- |
| Compound NOT metabolized | CCOc1ccc(NC(C)=O)cc1 [PHENACETIN] |
| Compound metabolized | CC(C(=O)O)c1ccc2c(c1)Cc1cccnc1O2 (stereo not given) [PRANOPROFEN] |

Conditions: human gut metagenome, 24 h, 2 µM
Remark: another data set of the same source

| Bacterial Biotransformation | Structure (SMILES) |
| --- | --- |
| Compound NOT metabolized | CCOc1ccc(NC(C)=O)cc1 [PHENACETIN] |
| Compound metabolized | CC(C(=O)O)c1ccc2c(c1)Cc1cccnc1O2 (stereo not given) [PRANOPROFEN] |

Conditions: human gut metagenome, 24 h, 2 µM
Remark: another data set of the same source

| Bacterial Biotransformation | Structure (SMILES) |
| --- | --- |
| Compound NOT metabolized | CCOc1ccc(NC(C)=O)cc1 [PHENACETIN] |
| Compound metabolized | CC(C(=O)O)c1ccc2c(c1)Cc1cccnc1O2 (stereo not given) [PRANOPROFEN] |

Conditions: human gut metagenome, 24 h, 2 µM
Remark: another data set of the same source

| Bacterial Biotransformation | Structure (SMILES) |
| --- | --- |
| Compound NOT metabolized | CCOc1ccc(NC(C)=O)cc1 [PHENACETIN] |
| Compound metabolized | CC(C(=O)O)c1ccc2c(c1)Cc1cccnc1O2 (stereo not given) [PRANOPROFEN] |

Conditions: human gut metagenome, 24 h, 2 µM
Remark: another data set of the same source

| Bacterial Biotransformation | Structure (SMILES) |
| --- | --- |
| Compound NOT metabolized | CCOc1ccc(NC(C)=O)cc1 [PHENACETIN] |
| Compound metabolized | CC(C(=O)O)c1ccc2c(c1)Cc1cccnc1O2 (stereo not given) [PRANOPROFEN] |

Conditions: human gut metagenome, 24 h, 2 µM
Remark: another data set of the same source

| Bacterial Biotransformation | Structure (SMILES) |
| --- | --- |
| Compound NOT metabolized | CCOc1ccc(NC(C)=O)cc1 [PHENACETIN] |
| Compound metabolized | CC(C(=O)O)c1ccc2c(c1)Cc1cccnc1O2 (stereo not given) [PRANOPROFEN] |

Conditions: human gut metagenome, 24 h, 2 µM
Remark: another data set of the same source

| Bacterial Biotransformation | Structure (SMILES) |
| --- | --- |
| Compound NOT metabolized | CCOc1ccc(NC(C)=O)cc1 [PHENACETIN] |
| Compound metabolized | CC(C(=O)O)c1ccc2c(c1)Cc1cccnc1O2 (stereo not given) [PRANOPROFEN] |

Conditions: human gut metagenome, 24 h, 2 µM
Remark: another data set of the same source

| Bacterial Biotransformation | Structure (SMILES) |
| --- | --- |
| Compound NOT metabolized | CCOc1ccc(NC(C)=O)cc1 [PHENACETIN] |
| Compound metabolized | CC(C(=O)O)c1ccc2c(c1)Cc1cccnc1O2 (stereo not given) [PRANOPROFEN] |

Conditions: human gut metagenome, 24 h, 2 µM
Remark: another data set of the same source

| Bacterial Biotransformation | Structure (SMILES) |
| --- | --- |
| Compound NOT metabolized | CCOc1ccc(NC(C)=O)cc1 [PHENACETIN] |
| Compound metabolized | CC(C(=O)O)c1ccc2c(c1)Cc1cccnc1O2 (stereo not given) [PRANOPROFEN] |
